{"source": "patent US20230346884A1", "about": "“Molecular Targets for Modulation of Dissociative and Associative States” (The Board of Trustees of the Leland Stanford Junior …, priority 2020, published 2023)", "key": {"[1]": {"system": "mice", "assay": "Open field test", "type": "in vivo, mouse", "details": "5 min; vs saline; doses of b234", "text": "Open Field Test: Mice were placed in an evenly illuminated 50 cm×50 cm open field test box. Mouse position was captured using a webcam and Viewer software (Biobserve)."}, "[2]": {"system": "mice", "assay": "Tail suspension test", "type": "in vivo, mouse", "procedure": "Tail Suspension Test: Mouse activity was recorded using a 60 Hz web camera. Struggling activity was quantified for minutes 2-10. […] Illumination began 30 seconds before tails were secured with tape and suspended from the beam. Mice were excluded if they climbed on their own tails."}, "[3]": {"system": "retrosplenial cortex (RSP)", "assay": "Fiber photometry in RSP (GCaMP6m)", "type": "in vivo, mouse", "text": "A 405 nm and 470 nm LED illumination (Thorlabs) was combined (425 nm longpass, Thorlabs DMLP425) and coupled into a fiber optic patch cord (400 μm diameter, 0.48 NA, Doric Lenses) using a longpass dichroic (505 nm, Thorlabs DMLP505) and a fixed-focused coupler/collimator with a standard FC connector (F240FC-A, NA 0.51, f =7.9 mm)^47,48. Each illumination channel was frequency modulated using the sync output from a lock-in amplifier (SR810 DSP, Stanford Research Systems). GCaMP fluorescence was collected through the same patchcord and delivered through a bandpass emission filter (Semrock, FF01-520/35) onto a NewFocus 2151 femtowatt silicon photoreceiver (Newport, DC Low mode). The signal from the photoreceiver was split into each lock-in amplifier, and the filtered outputs were digitized at 5 kHz using a NIDAQ (National Instruments PCIe-6353) and saved using a MATLAB (MathWorks) acquisition script.\nAnalysis was performed using custom MATLAB (MathWorks) scripts. Widefield imaging videos were registered to a 2D top-projection atlas generated from the annotated Allen Brain Atlas volume, version CCFv2, in MATLAB (MathWorks), using an affine transformation computed from four manually selected control points. Each video was DF/F normalized, using the median for each pixel over the entire time series as F. The 410 nm channel was then temporally smoothed using a moving average (width=400 ms). The smoothed 410 nm DF/F signal for each pixel was regressed onto the 488 nm DF/F signal for the corresponding pixel, and the regression coefficients were used to scale the 410 nm channel to the 488 nm channel. This scaled 410 nm DF/F signal was then subtracted from the 488 nm DF/F signal to produce a normalized signal for each pixel. For quantification, activity traces were extracted from points centered in five cortical regions (visual, somatosensory, parietal, motor, retrosplenial) on the left hemisphere of the brain. The video data was Gaussian smoothed spatially (radius=2 pixels). Similarly, for fiber photometry recordings, the 410 nm signal was regressed onto the 488 nm signal, the 410 nm signal was scaled by the regression coefficients, and then subtracted from the 488 nm signal.\nEach trace (corresponding to either a fiber photometry signal, a cellular two-photon signal, a widefield regional centroid, a widefield pixel, an sEEG trace, or a smoothed spike rate Neuropixels trace) was z-scored, and the power spectral density (PSD) was then estimated using Welch's method (pwelch( ) in Matlab), with a window size of 10*fs (15*fs for human sEEG) where fs is the sampling rate of the signal. The average band power within a specified band (i.e. 1-3 Hz) was then computed by integrating the PSD estimate (bandpower in Matlab). For displaying the traces of individual cells, traces were each zscored by subtracting the mean value of the trace (across the whole recorded time window) and dividing by the standard deviation of the trace. Unless otherwise indicated, the PSD was computed across the time window from minutes 10 to 11 post-injection.\nStereotaxic Surgery: Adult male and female HCN1^f/f, NR1^f/f, or wildtype C57/B16 were injected bilaterally in two retrosplenial locations (AP −3.1 and −3.4, ML+/−0.5, DV −0.5) with 1 uL of AAV8-Ef1a-mCherry-IRES-Cre (titer 5E11) and AAVdj-Ef1a-DIO-GCaMP6m (titer 1E13). A 400-micron optical fiber was implanted over one injection location. At least four weeks were allowed for viral expression and gene disruption before photometry recording. For gene knockout behavior experiments, injections of AAVdj-Ef1a-Cre were made at (AP −2.7, −3.1 and −3.5, ML+/−0.5, DV −1.35 and −0.70). For gene knockout control behavioral experiments, two retrosplenial injections of AAVdj-Efla-Cre were made in experimental animals."}, "[4]": {"system": "neurons throughout the brain", "assay": "Simultaneous recording from four Neuropixels probes with i.p. drug delivery", "method": "Mice were anesthetized with isoflurane, carefully leveled in a stereotaxic apparatus and their scalp and periosteum were removed. A 3% hydrogen peroxide in saline solution was used to clean the surface of the skull. A custom stainless steel headbar was leveled on the skull and attached using clear dental cement. After the cement had dried, targeted probe entry sites were stereotaxically marked on the cement layer with a permanent marker (Day 1: “mPFC”, 2.3AP, 0.6 ML; “somatosensory”, −0.7AP, −4.0 ML; “retrosplenial”, −2AP, −1 ML; “subiculum”, −3.5AP, 2.14 ML; Day 2: “OFC”: 2.5AP, 1.5 ML; “mPFC”: 2.3AP, −0.6 ML; “retrosplenial”, −2AP, 1 ML; “thalamus”, −1.5AP, −1.7 ML). […] A 2 mm long insulated platinum-iridium wire was implanted centrally over the cerebellum, with the last several hundred microns bared to serve as an electrical reference.\nMice were acclimated to head fixation and the recording rig over several days before recording. Several hours before recording, mice were anesthetized for approximately 30 minutes each while small 1 mm craniotomies were made over four pre-marked areas. Craniotomies were kept clean of bone fragments and made such that bleeding was minimized. The skull was covered with a pool of saline and with Quik-Cast to protect and keep moist craniotomies before recording. Mice recovered in their homecages before recording. Immediately prior to recording set up, mice were very briefly anesthetized with isoflurane and implanted with an IV catheter system (BD Saf-T-Intima Closed IV Catheter System: 22G ×¾″, containing an integrated Y adaptor and safety lock) to their intraperitoneal cavity and affixed with glue. […] While still anesthetized, mice were headfixed and tubing was secured stably to a custom mouse holder by tape. Quik-Cast was removed from the skull, and craniotomies were briefly cleaned before being submerged in a pool of saline. Four Neuropixels 1.0 probes^43,44, were grounded together with the mouse reference electrode, coated with red fixable dye (CM-Dil, ThermoFisher), positioned over each craniotomy, and carefully inserted at approximately 15 degrees from the vertical axis to depths of 4-5 mm at a rate of approximately 3 um/s. Following the completion of all insertions, the probes were allowed to rest for at least 10 minutes before the recording began. 30 kHz data was acquired from the four probes simultaneously using the Neuropixels control system (as described in the User Manual) and SpikeGLX software (billkarsh.github.io/SpikeGLX/). The four acquisitions were synchronized using a common squarewave signal recorded for all probes and aligned to the nearest pulse edge. Following the beginning of recording, a 20-minute baseline period of activity was collected. […]"}, "[5]": {"system": "mouse", "details": "cited from earlier work"}}, "note": "Entries after “also recorded” stand apart in the source; their conditions may differ."}
{"smiles": "CNC1(c2ccccc2Cl)CCCCC1=O", "note": "(stereo not shown) [ketamine]", "values": [{"measurement": "Open-field locomotion velocity", "setting": "[1]", "value": "decreased velocity"}, {"measurement": "Tail suspension-escape behavior vs. wild-type", "setting": "[2]; both channel-knockouts (HCN1, GRIN1), ketamine", "value": "modestly-recovered tail suspension-escape behavior"}, {"measurement": "Tail-suspension escape responses", "setting": "[2]; ketamine >=25 mg/kg", "value": "suppressed tail-suspension escape responses"}, {"measurement": "Glass's A, power 25 mg/kg vs 13 mg/kg (FIG. 3C)", "setting": "[3]; 10 min after injection", "value": 3.2}, {"measurement": "Hedge's g effect-size, oscillation-power GRIN1-pre/GRIN1-post (FIG. 4E)", "setting": "[3]; GRIN1 knockout, ketamine", "value": 2.03}, {"measurement": "Hedge's g effect-size, oscillation-power HCN1-pre/HCN1-post (FIG. 4E)", "setting": "[3]; HCN1 knockout, ketamine", "value": 1.02}, {"measurement": "1-3 Hz RSP oscillation", "setting": "[3]; ketamine 25 mg/kg, widefield imaging and fiber photometry", "value": "revealed a 1-3 Hz oscillation at 25 mg/kg"}, {"measurement": "Ketamine-induced oscillations", "setting": "[3]; local RSP GRIN1 (NMDAR) knockout mice, four weeks after virus", "value": "significantly diminished; also recorded: partially attenuated"}, {"measurement": "Ketamine-induced oscillations", "setting": "[3]; local RSP HCN1 knockout mice, four weeks after virus", "value": "significantly diminished"}, {"measurement": "Ketamine-induced oscillations", "setting": "[3]; wild-type mice", "value": "preserved in wild-type"}, {"measurement": "Hedge's g effect-size, oscillation-power WT-pre/WT-post (FIG. 4E)", "setting": "[3]; wild-type, ketamine", "value": 3.22}, {"measurement": "Correlations of brain regions with RSP", "setting": "[4]; 8-12 min after ketamine injection (50 mg/kg i.p.)", "value": "correlations with RSP were reduced"}, {"measurement": "Coupling of anteromedial thalamic neurons with RSP", "setting": "[4]; subanesthetic ketamine", "value": "oscillate out-of-phase with RSP"}, {"measurement": "Coupling of laterodorsal and anteroventral thalamus", "setting": "[4]; subanesthetic ketamine", "value": "became more-strongly correlated to each other and RSP"}, {"measurement": "Rhythmicity of subcortical regions", "setting": "[4]; subanesthetic ketamine", "value": "specific subcortical regions (inaccessible to cortical imaging) exhibiting increased rhythmicity"}, {"measurement": "Doses for anti-depressant effects", "setting": "[5]", "value": "3 to 10", "unit": "mg/kg"}]}
